In patent publication US20240142437A1, “METHODS TO PREVENT TERATOGENICITY OF IMID LIKE MOLECULES AND IMID BASED DEGRADERS/PROTACS” (DANA-FARBER CANCER INSTITUTE, INC., priority 2017, published 2024):
Values belong to the compound of their own block, whether it stands above or below them.

How the values were obtained:
[1] = system: IMiD-dependent CRL4^CRBN substrates; test: TMT quantification mass spectrometry proteomics, IMiD-dependent neo-substrates (hESC, Kelly, SK-N-DZ, MM1s cells); assay type: cell-based, human; details: for substrate specificity: proteins degraded across cell lines: hESC, MM1s, Kelly, SK-N-DZ cells expressing detectable levels of the proteins; for number of substrates identified (rank order): proteomics, treatment with different IMiDs
Description: Since degradation is mediated through CRL4^CRBN, and because CRBN expression levels are high in the central nervous system (CNS), the effects of IMiDs were assessed in two different neuroblastoma cell lines, Kelly and SK-N-DZ cells, as well as the commonly used multiple myeloma cell line, MM1s, as a control.
Proteins were precipitated using methanol/chloroform.

[2] = target: T1, SALL4 (Homo sapiens, UniProt Q96SW2+Q9UJQ4); test: Western blot of SALL4 protein levels in human cell lines; assay type: cell-based; details: for effect of co-treatment on IMiD-induced SALL4 degradation: co-treatment with thalidomide, 5 μM bortezomib, 5 μM MLN4924, 0.5 μM MLN7243, HEK293T, SK-N-DZ cells; for SALL4 degradation in CRBN−/− cells: CRBN−/− Kelly and HEK293T cells; for SALL4 protein levels by western blot: 24 hours
T1 construct: endogenous in cells; host or cells: Kelly, SK-N-DZ, HEK293T (western blot)
T1 sequence (Q9UJQ4 whole entry): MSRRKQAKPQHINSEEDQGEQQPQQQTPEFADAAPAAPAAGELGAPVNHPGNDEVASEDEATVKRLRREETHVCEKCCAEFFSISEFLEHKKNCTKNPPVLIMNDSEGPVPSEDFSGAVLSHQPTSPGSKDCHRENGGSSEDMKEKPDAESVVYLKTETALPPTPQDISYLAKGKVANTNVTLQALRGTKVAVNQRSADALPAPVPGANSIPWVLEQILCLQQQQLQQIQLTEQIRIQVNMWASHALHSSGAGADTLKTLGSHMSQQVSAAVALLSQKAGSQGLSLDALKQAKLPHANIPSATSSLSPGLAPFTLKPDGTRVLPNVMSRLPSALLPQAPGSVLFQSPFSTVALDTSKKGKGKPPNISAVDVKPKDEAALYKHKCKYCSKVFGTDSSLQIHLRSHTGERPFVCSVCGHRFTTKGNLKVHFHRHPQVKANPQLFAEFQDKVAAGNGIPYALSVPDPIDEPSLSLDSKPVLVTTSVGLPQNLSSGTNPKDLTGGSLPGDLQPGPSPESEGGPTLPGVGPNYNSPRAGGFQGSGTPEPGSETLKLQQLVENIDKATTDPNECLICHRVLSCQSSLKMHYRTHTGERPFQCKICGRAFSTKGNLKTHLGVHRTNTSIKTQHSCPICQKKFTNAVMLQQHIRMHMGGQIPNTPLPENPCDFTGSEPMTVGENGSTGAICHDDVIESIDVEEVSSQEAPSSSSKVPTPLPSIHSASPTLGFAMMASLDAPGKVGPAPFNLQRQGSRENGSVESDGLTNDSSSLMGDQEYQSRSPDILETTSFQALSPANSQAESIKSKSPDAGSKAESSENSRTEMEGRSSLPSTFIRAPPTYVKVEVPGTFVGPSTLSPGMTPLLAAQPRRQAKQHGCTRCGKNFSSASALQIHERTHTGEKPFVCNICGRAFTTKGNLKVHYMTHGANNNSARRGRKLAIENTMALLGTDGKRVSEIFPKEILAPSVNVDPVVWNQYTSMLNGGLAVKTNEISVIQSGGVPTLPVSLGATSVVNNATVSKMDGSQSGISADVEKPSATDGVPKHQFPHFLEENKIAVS
T1 sequence (Q96SW2 whole entry): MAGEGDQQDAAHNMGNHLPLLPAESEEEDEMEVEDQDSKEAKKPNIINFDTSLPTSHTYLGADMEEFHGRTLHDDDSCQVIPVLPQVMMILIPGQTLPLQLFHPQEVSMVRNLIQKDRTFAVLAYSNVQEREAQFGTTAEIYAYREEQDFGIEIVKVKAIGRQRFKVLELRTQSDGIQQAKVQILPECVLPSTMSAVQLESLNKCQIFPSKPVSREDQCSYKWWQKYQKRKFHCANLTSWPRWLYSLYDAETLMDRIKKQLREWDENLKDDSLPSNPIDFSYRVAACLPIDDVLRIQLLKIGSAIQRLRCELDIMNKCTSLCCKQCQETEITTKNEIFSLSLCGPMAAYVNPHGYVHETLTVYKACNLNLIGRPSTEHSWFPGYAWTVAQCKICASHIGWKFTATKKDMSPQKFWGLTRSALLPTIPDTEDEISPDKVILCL
T1 sequence (Q16531 2-1140 partner limits assumed): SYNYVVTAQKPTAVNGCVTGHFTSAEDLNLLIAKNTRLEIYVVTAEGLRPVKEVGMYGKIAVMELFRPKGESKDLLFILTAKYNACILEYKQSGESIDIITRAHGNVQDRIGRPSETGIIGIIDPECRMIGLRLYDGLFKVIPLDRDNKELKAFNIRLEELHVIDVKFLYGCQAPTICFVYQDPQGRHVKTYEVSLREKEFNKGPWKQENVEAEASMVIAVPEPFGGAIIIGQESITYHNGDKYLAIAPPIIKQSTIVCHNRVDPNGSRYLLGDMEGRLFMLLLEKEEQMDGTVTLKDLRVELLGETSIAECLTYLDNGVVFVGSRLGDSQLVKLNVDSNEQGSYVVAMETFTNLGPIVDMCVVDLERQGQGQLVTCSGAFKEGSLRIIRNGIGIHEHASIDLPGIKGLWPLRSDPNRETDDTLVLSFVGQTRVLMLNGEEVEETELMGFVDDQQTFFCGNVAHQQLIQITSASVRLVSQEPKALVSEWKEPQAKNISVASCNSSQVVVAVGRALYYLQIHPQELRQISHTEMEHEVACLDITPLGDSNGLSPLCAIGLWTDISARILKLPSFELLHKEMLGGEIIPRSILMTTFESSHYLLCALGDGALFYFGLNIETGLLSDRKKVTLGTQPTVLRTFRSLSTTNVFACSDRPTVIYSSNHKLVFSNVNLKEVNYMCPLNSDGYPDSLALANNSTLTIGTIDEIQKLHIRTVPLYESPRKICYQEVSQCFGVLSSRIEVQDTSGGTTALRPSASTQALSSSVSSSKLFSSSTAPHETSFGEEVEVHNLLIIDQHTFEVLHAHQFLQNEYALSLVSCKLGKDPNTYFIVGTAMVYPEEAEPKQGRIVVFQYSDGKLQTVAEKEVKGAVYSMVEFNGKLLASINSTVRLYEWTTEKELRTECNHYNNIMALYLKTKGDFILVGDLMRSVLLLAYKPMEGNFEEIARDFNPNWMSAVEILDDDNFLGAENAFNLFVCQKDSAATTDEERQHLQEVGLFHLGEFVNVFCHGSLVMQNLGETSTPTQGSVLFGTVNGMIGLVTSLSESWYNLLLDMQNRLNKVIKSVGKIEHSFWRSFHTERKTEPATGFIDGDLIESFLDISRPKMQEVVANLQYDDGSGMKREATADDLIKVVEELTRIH
Description: HEK293T cells were cultured in DMEM supplemented with 10% dialyzed fetal bovine serum (FBS) and 2 mM L-Glutamine. SK-N-DZ cells were cultured in DMEM supplemented with 10% dialyzed FBS, 0.1 mM Non-Essential Amino Acids (NEAA) and 2 mM L-Glutamine. H661, MM1s and Kelly cells were cultured in RPMI1640 supplemented with 10% dialyzed FBS. H9 hESC cells were cultured in Essential 8 (Gibco) media on Matrigel-coated nunc tissue culture plates.
(§1) Samples were run on 4-20%, AnyKD or 10% (in-vitro ubiqutination assay) SDS-PAGE Gels (Bio-rad), and transferred to PVDF membranes using the iBlot 2.0 dry blotting system (Thermo Fisher Scientific). Membranes were blocked with LiCor blocking solution (LiCor), and incubated with primary antibodies overnight, followed by three washes in LiCor blocking solution and incubation with secondary antibodies for one hour in the dark. After three final washes, the membranes were imaged on a LiCor fluorescent imaging station (LiCor). When Anti-mouse IgG, HRP Antibody was used, after three washes, the membranes were incubated with Amersham ECL Prime Western Blotting Detection Reagent for 1 minute and subjected to imaging by Amersham Imager 600 (GE).

[3] = cited from earlier work; for plasma half-life (t1/2) / Cmax: typical dose of 200-400 mg, 25 mg, or 2 mg for thalidomide, lenalidomide, or pomalidomide; for Cmax: read-out: maximum plasma concentration (Cmax)
[4] = target: SALL4 ZnF domains and DDB1ΔB-CRBN (Homo sapiens, UniProt Q96SW2+Q9UJQ4); test: TR-FRET in vitro CRBN binding assay; details: SALL4ZnF2; in accordance with cellular potency in degradation of SALL4
Sequence of SALL4 ZnF domains and DDB1ΔB-CRBN (Q96SW2 whole entry, stated change not applied, the tested form may be a part): as the sequence (Q96SW2 whole entry) above
Sequence of SALL4 ZnF domains and DDB1ΔB-CRBN (Q9UJQ4 402-436, stated change not applied): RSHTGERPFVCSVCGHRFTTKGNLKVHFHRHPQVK
Description: Before TR-FRET measurements were conducted, the reactions were incubated for 15 minutes at RT. […] The TR-FRET signal of each data point was extracted by calculating the 520/490 nm ratios.

[5] = target: T2, mmSALL4 (Mus musculus, UniProt Q8BX22); test: Western blot of mmSALL4 in mouse embryonic stem cells; assay type: cell-based; details: mESC, increasing concentrations, 24 hours
T2 construct: endogenous in cells; host or cells: TC1 mouse embryonic stem cells
Description: HEK293T cells were cultured in DMEM supplemented with 10% dialyzed fetal bovine serum (FBS) and 2 mM L-Glutamine. SK-N-DZ cells were cultured in DMEM supplemented with 10% dialyzed FBS, 0.1 mM Non-Essential Amino Acids (NEAA) and 2 mM L-Glutamine. H661, MM1s and Kelly cells were cultured in RPMI1640 supplemented with 10% dialyzed FBS. H9 hESC cells were cultured in Essential 8 (Gibco) media on Matrigel-coated nunc tissue culture plates. TC1 mouse embryonic stem cells (mESCs) were adapted to gelatin cultures and fed with KO-DMEM (Gibco) supplemented with 15% stem cell-qualified fetal bovine serum (FBS, Gemini), 2 mM L-glutamine (Gibco), 20 mM HEPES (Gibco), 1 mM sodium pyruvate (Gibco), 0.1 mM of each non-essential amino acids (Gibco), 0.1 mM 2-mercaptoethanol (Sigma), […] mLIF (Gemini).
Cells were treated with compounds as indicated and incubated for 24 hours, or as indicated. Samples were run on 4-20%, AnyKD or 10% (in-vitro ubiqutination assay) SDS-PAGE Gels (Bio-rad), and transferred to PVDF membranes using the iBlot 2.0 dry blotting system (Thermo Fisher Scientific). Membranes were blocked with LiCor blocking solution (LiCor), and incubated with primary antibodies overnight, followed by three washes in LiCor blocking solution and incubation with secondary antibodies for one hour in the dark. […]

[6] = system: SALL4 mRNA; test: Quantitative RT-PCR of total SALL4 mRNA in H9 hES cells; assay type: cell-based, human; details: 10 μM thalidomide, 24 hours, normalized to GAPDH
Description: RNA was isolated using the RNeasy Plus mini kit (Qiagen) and cDNA created by reverse transcription using ProtoScript II reverse transcriptase (NEB) following the manufacturer's instructions. The following primer sets from IDT were used with SYBR Green Master Mix (Applied Biosystems) to probe both GAPDH and total SALL4 levels:
Analysis was performed on a CFX Connect Real-Time PCR System (Bio-Rad) in a white 96-well PCR plate. Relative expression levels were calculated using the […] method.

[7] = system: Flag-hsSALL4; test: Western blot of transiently transfected Flag-hsSALL4 (WT or mutant) in Kelly cells; assay type: cell-based, human; details: 24 hours
Description: as §1, with “Cells were treated with compounds as indicated and incubated for 24 hours, or as indicated. Samples” for “Samples”
(§2) hsCRBN, hsSALL4, mmSALL4 and drSALL4 were PCR amplified and cloned into a pNTM-Flag based vector. Mutagenesis was performed using the Q5 site-directed mutagenesis kit (NEB, USA) with primers designed using the BaseChanger web server (http://nebasechanger.neb.com/).
For transient transfection, 0.2 million cells were seeded per well in a 12 well plate on day one. On day two, cells were transfected with 200-300 ng of plasmid (pNTM-Flag containing gene of interest) using 2 μL of lipofectamine 2000 transfection reagent (Invitrogen). On day three, desired concentration of IMiD was added to each well and cells were harvested after 24 hours for western blot analysis using the protocol described above.

[8] = target: Flag-mmSALL4 (UniProt Q8BX22+Q96SW2); test: Western blot of transiently transfected Flag-mmSALL4 in Kelly cells; assay type: cell-based, mouse; details: Y415F, P418S, I419V, L430F, Q435H
Sequence of Flag-mmSALL4 (Q8BX22 whole entry): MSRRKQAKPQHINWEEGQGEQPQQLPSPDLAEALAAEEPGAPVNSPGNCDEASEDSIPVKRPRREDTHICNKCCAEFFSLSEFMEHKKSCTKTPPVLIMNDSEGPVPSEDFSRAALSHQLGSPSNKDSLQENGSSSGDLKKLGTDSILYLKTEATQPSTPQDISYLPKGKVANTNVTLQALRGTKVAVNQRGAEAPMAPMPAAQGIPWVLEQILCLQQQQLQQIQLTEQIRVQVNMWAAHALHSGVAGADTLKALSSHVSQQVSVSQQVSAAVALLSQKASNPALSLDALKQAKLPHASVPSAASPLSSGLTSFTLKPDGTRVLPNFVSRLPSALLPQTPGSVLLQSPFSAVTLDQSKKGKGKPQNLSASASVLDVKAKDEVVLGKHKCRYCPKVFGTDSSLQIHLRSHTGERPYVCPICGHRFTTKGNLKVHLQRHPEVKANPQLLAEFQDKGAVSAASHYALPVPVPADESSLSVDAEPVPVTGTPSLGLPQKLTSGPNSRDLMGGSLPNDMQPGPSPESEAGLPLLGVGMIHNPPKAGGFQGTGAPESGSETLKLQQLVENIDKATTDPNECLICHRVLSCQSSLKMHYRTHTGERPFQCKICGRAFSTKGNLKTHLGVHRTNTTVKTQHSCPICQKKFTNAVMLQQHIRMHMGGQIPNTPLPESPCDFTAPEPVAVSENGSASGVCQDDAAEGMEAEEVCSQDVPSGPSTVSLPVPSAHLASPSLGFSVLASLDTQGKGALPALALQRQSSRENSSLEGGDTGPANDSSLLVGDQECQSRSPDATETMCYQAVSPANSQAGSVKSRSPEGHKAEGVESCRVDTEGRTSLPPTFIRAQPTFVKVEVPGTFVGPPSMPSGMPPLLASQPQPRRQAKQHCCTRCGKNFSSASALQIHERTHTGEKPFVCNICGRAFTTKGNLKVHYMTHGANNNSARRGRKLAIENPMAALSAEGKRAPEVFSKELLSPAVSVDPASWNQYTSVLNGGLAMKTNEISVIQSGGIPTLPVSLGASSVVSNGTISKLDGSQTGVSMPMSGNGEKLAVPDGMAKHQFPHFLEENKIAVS
Sequence of Flag-mmSALL4 (Q96SW2 whole entry): as the sequence (Q96SW2 whole entry) above
Sequence of Flag-mmSALL4 (Q16531 2-1140 partner limits assumed): as the sequence (Q16531 2-1140 partner limits assumed) above
Description: as §1, with “Cells were treated with compounds as indicated and incubated for 24 hours, or as indicated. Samples” for “Samples”
as §2
For transient transfection, 0.2 million cells were seeded per well in a 12 well plate on day one. On day two, cells were transfected with 200-300 ng of plasmid (pNTM-Flag containing gene of interest) using 2 μL of lipofectamine 2000 transfection reagent (Invitrogen). […]

[9] = Kelly, SK-N-DZ, HEK293T and H661 cells, increasing concentrations

effect of co-treatment on IMiD-induced SALL4 degradation ([2]; Kelly): abrogated
Compound: NS(=O)(=O)OC[C@H]1C[C@@H](Nc2ccnc3cc(-c4cccc(SC(F)(F)F)c4)nn23)[C@H](O)[C@@H]1O [MLN7243]

effect of co-treatment on IMiD-induced SALL4 degradation ([2]; Kelly): abrogated
Compound: CC(C)C[C@H](NC(=O)[C@H](Cc1ccccc1)NC(=O)c1cnccn1)B(O)O [bortezomib]

SALL4 degradation in CRBN−/− cells ([2]; increasing concentrations): no degradation of SALL4 was observed
earliest time of SALL4 degradation post-treatment ([2]; Kelly cells, 1 or 5 μM pomalidomide): 4 h
SALL4 protein levels by western blot [2, 9]: dose-dependent decrease
rank order in binding observed with ZnF2 [4]: Pom >Thal>>Len
degradation of mmSALL4 [5]: does not promote degradation of mmSALL4
Compound: Nc1cccc2c1C(=O)N(C1CCC(=O)NC1=O)C2=O (stereo not shown) [pomalidomide]
further proteins degraded in proteomics ([1]; H9 hESC, 5 hours, 5 μM lenalidomide, 1 μM pomalidomide): degradation of additional targets including the previously characterized zinc finger protein ZFP91 (An et al., 2017), and the largely uncharacterized proteins ZBTB39, FAM83F, WIZ, RAB28, and DTWD1
substrate specificity: proteins degraded across cell lines [1]: robust degradation of ZBTB39, ZFP91, DTWD1, and ZNF653
number of substrates identified (rank order) [1]: Thal <Len<<Pom
SALL4 protein levels by western blot ([2]; H9 hESC, increasing doses): dose dependent decrease in protein levels
plasma half-life (t1/2) [3]: ~9 h
Cmax [3]: 0.05 µM

SALL4 degradation at plasma-relevant concentration ([2]; 10 μM): effective degradation of SALL4
SALL4 degradation in CRBN−/− cells ([2]; increasing concentrations): no degradation of SALL4 was observed
SALL4 protein levels by western blot [2, 9]: dose-dependent decrease
rank order in binding observed with ZnF2 [4]: Pom >Thal>>Len
degradation of mmSALL4 [5]: does not promote degradation of mmSALL4
degradation of mmSALL4 with humanized ZnF2 domain [8]: degradation was induced
Compound: O=C1CCC(N2C(=O)c3ccccc3C2=O)C(=O)N1 (stereo not shown) [thalidomide, 2-(2,6-dioxopiperidin-3-yl)-1H-isoindole-1,3(2H)-dione]
substrate specificity: proteins degraded across cell lines [1]: robust degradation of the zinc finger transcription factors ZNF692, SALL4, and the ubiquitin ligase RNF166
number of substrates identified (rank order) [1]: Thal <Len<<Pom
SALL4 protein levels by western blot ([2]; H9 hESC, increasing doses): dose dependent decrease in protein levels
SALL4 mRNA level [6]: does not reduce the level of SALL4 mRNA, but rather upregulates SALL4 mRNA
SALL4 mRNA level ([6]; listed as Thalidomide): did not influence the expression of SALL4 mRNA
degradation of wild type Flag-hsSALL4 [7]: readily degraded
degradation of Flag-SALL4 with G416A or G416N mutations in ZnF2 ([7]; thalidomide): rendered SALL4 stable
degradation of Flag-SALL4 with G600A or G600N mutations in ZnF4 ([7]; thalidomide): readily degraded
plasma concentration in humans ([3]; human, in vivo): ≤ 10 µM
plasma half-life (t1/2) [3]: 6 to 8 h
Cmax [3]: 5 to 10 µM

More lines, now with the values behind:

Compound: O=C1CC[C@H](N2Cc3c(OCc4ccc(CN5CCOCC5)cc4)cccc3C2=O)C(=O)N1 [CC-220]
degradation of ZnF targets including SALL4 (proteomics) ([1]; SK-N-DZ cells, 0.1 μM CC-220, 1 μM dBET57, 5 hours (FIG. 6C)): effective inducers of ZnF targets including SALL4 degradation

Compound: NS(=O)(=O)OC[C@@H]1C[C@@H](n2ccc3c(N[C@H]4CCc5ccccc54)ncnc32)C[C@@H]1O [MLN4924]
effect of co-treatment on IMiD-induced degradation of targets (rescue proteomics) ([1]; SK-N-DZ cells, 1 μM pomalidomide + 5 μM MLN4924, 5 hours): fully abrogated IMiD-induced degradation of targets
effect of co-treatment on IMiD-induced SALL4 degradation ([2]; Kelly): abrogated

Compound: Nc1cccc2c1CN(C1CCC(=O)NC1=O)C2=O (stereo not shown) [lenalidomide]
plasma half-life (t1/2) [3]: ~3 h
